Consider 16 molecules from PubChem BioAssay (NCI).

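Method: 48-hour compound exposure of cells in 96-well plates, five concentrations, linear interpolation of endpoints. The concentration for full growth arrest is given as TGI.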

Some test systems named below: A498 renal; HCC-2998 colon; HCT-116 colon; OVCAR-8 ovarian; SN12C renal; OVCAR-5 ovarian; RXF 393 renal; ACHN renal; TK-10 renal; PC-3 prostate; MDA-MB-435.
Common to all, as to test: NCI anticancer screen, dose series, 48 h

Consider `COc1ccc2c(c1)OCCc1cn[nH]c1-2`, for which the TGI in the assay on A498 renal was 86.1 µM; in the assay with HCC-2998 colon it was greater than 100 µM; with HCT-116 colon, greater than 100 µM; in the assay on OVCAR-8 ovarian, greater than 100 µM; in the assay on SN12C renal it was greater than 100 µM; with OVCAR-5 ovarian, greater than 100 µM. Besides, the TGI in the assay with RXF 393 renal was greater than 100 µM.
As to `CCSCN(C)c1nc(N(C)C)nc(N(C)C)n1`, the TGI in the assay on A498 renal, in the assay with HCC-2998 colon, in the assay on HCT-116 colon, in the assay with ACHN renal, in the assay on OVCAR-8 ovarian and in the assay with SN12C renal was greater than 100 µM in each case. The TGI with OVCAR-5 ovarian is greater than 100 µM; in the assay on TK-10 renal, greater than 100 µM; in the assay with RXF 393 renal it was 61.3 µM.
Consider `O=C1C[C@@H]2[C@@H](CCC23CC3)N1`, for which the TGI in the assay on A498 renal, in the assay on HCC-2998 colon, in the assay on HCT-116 colon, in the assay on OVCAR-8 ovarian, in the assay with SN12C renal and in the assay with OVCAR-5 ovarian was greater than 100 µM in each case. The TGI in the assay with TK-10 renal and in the assay with RXF 393 renal was greater than 100 µM each time.
`CC(=O)OC12c3ccccc3C(c3ccccc31)C1C(=O)N(c3ccccn3)C(=O)C12` (stereo not given): the TGI with PC-3 prostate, in the assay with HCC-2998 colon, in the assay with HCT-116 colon, with OVCAR-8 ovarian, in the assay on SN12C renal and in the assay with OVCAR-5 ovarian was greater than 100 µM throughout. Further, the TGI in the assay on TK-10 renal and in the assay with RXF 393 renal was greater than 100 µM in each case.
Consider `COc1cccc(/C(Cl)=C(\C=O)c2cccc(OC)c2)c1`, for which the TGI in the assay on A498 renal amounted to 36.3 µM; in the assay on HCC-2998 colon, 30.5 µM; in the assay on HCT-116 colon it was 15 µM; with ACHN renal it was 25.8 µM; in the assay with OVCAR-8 ovarian, 30.5 µM; in the assay on SN12C renal, 34.7 µM. Moreover, the TGI with OVCAR-5 ovarian was determined as 38 µM; with TK-10 renal, 51.2 µM; in the assay on RXF 393 renal it was 25.1 µM.
Take `O=NN(CCF)C(=O)NC1CC2CCC1C2` (stereo not given): the TGI with A498 renal, with HCC-2998 colon, in the assay with HCT-116 colon, in the assay with OVCAR-8 ovarian, in the assay on SN12C renal and in the assay with OVCAR-5 ovarian was greater than 100 µM each time. Moreover, in the assay with RXF 393 renal, the TGI is greater than 100 µM.
In the case of `O=C1Nc2cc([N+](=O)[O-])c(Br)cc2C1=O`, the TGI was greater than 100 µM with A498 renal; 35.3 µM with ACHN renal; 31.6 µM with OVCAR-8 ovarian; 32.7 µM in the assay with SN12C renal; greater than 100 µM with TK-10 renal; 39.4 µM in the assay with RXF 393 renal.
As to `COc1ccc2nc3c(c(NCCCN(C)C)c2c1)CCCC3`, the TGI in the assay on A498 renal came out at 36.3 µM; in the assay with HCC-2998 colon, 21.5 µM; with HCT-116 colon, 17.2 µM; with ACHN renal, 55.3 µM; in the assay with OVCAR-8 ovarian it was 36.4 µM; in the assay with SN12C renal, 47.2 µM. Moreover, the values for the TGI with OVCAR-5 ovarian, in the assay with TK-10 renal and with RXF 393 renal were 35.6 µM, greater than 100 µM and 29.5 µM, respectively.
Turning to `CN(C)/C=N\c1ccnc(=O)[nH]1`, the TGI with A498 renal, with HCT-116 colon, in the assay on ACHN renal, in the assay with OVCAR-8 ovarian, in the assay with SN12C renal and with OVCAR-5 ovarian was greater than 100 µM throughout. The TGI in the assay on TK-10 renal and with RXF 393 renal was greater than 100 µM throughout.
With `COC(=O)C1=C(O)C(C(=O)OC)[C@]2(O)[C@@H](C(=O)OC)[C@H]1C[C@@H](c1ccccc1)[C@@H]2C(=O)OC` (stereo not given in full), the TGI with A498 renal was 35.2 µM; in the assay on HCC-2998 colon it was 27.3 µM; with HCT-116 colon, 21.8 µM; with ACHN renal, 55.7 µM; in the assay on SN12C renal it was 32.1 µM; in the assay with OVCAR-5 ovarian it was 30.9 µM. Also, the results for the TGI in the assay with TK-10 renal, in the assay on MDA-MB-435 and with RXF 393 renal were 53.5 µM, 30.6 µM and 19.9 µM, respectively.
For `Cc1c(OCc2ccccc2)c(=O)ccn1CCc1c[nH]c2ccccc12`, the TGI with PC-3 prostate, in the assay with HCT-116 colon, in the assay with ACHN renal, in the assay on OVCAR-8 ovarian, in the assay with SN12C renal and in the assay on OVCAR-5 ovarian was greater than 100 µM each time. Besides, the TGI with TK-10 renal is greater than 100 µM; in the assay on MDA-MB-435, 51.1 µM.
Turning to `COc1cc(C2C(Cl)C(=O)N2NC(=O)c2ccc(NC(C)=O)cc2)ccc1O` (stereo not given), the TGI with A498 renal, with HCT-116 colon, in the assay on ACHN renal, with OVCAR-8 ovarian, with SN12C renal and with OVCAR-5 ovarian was greater than 100 µM each time. Also, the TGI with TK-10 renal and in the assay on RXF 393 renal was greater than 100 µM each time.
On to `Cc1cccc2c1c1ccc3c(c1n2C)C(=O)C=CC3=O`, for which the TGI in the assay on A498 renal is 44.5 µM; in the assay on HCC-2998 colon, 32.8 µM; in the assay on HCT-116 colon, 15.1 µM; in the assay on ACHN renal, 18 µM; in the assay on OVCAR-8 ovarian it was 32.1 µM; in the assay with SN12C renal it was 12.8 µM. Moreover, the TGI in the assay on OVCAR-5 ovarian stood at 29.5 µM; with TK-10 renal it was 7.19 µM; with RXF 393 renal it was 7.86 µM.
`CC(=O)NNc1nc(C)c(C(=O)NNC(=O)C(=O)Nc2cccc(C(C)=O)c2)s1`: the TGI was 47.8 µM in the assay on A498 renal; 32.5 µM with HCC-2998 colon; greater than 100 µM with HCT-116 colon; 30.8 µM in the assay on ACHN renal; 39.4 µM with OVCAR-8 ovarian; 35.1 µM in the assay on SN12C renal. Moreover, the TGI with OVCAR-5 ovarian is greater than 100 µM; with TK-10 renal, 31.1 µM; in the assay on RXF 393 renal, 30 µM.
Regarding `Cc1cc(NC(=O)C2C3C=CC(O3)C2C(=O)O)no1` (stereo not given), the TGI in the assay on A498 renal is greater than 100 µM; in the assay with HCC-2998 colon it was greater than 100 µM; in the assay on HCT-116 colon it was 32 µM; with ACHN renal, greater than 100 µM; in the assay on OVCAR-8 ovarian, 32.6 µM; in the assay with SN12C renal, greater than 100 µM. Further, the TGI with OVCAR-5 ovarian was greater than 100 µM; with TK-10 renal, greater than 100 µM; with RXF 393 renal, 31 µM.
Take `C[S+](C)CC1OC(n2cnc3c(N)ncnc32)C(O)C1O` (stereo not given): the TGI in the assay with A498 renal, in the assay on HCC-2998 colon, with HCT-116 colon, with OVCAR-8 ovarian, in the assay with SN12C renal and in the assay on OVCAR-5 ovarian was greater than 225 µM throughout. In the assay on RXF 393 renal, the TGI is greater than 225 µM.
